# According to patent publication US20240158348A1, “HERBICIDAL CYCLIC AMIDES N-SUBSTITUTED WITH A HALOALKYLSULFONYLANILIDE GROUP” (FMC Corporation, priority 2021, published 2024):
# Legend:
# Format in all cases: in vivo
# [1] = tested on: wheat (Triticum aestivum); assay: Test C postemergence, wheat; details: visual injury, 0 to 100 scale (0 no effect, 100 complete control)
# Excerpt: (§1) Seeds of plant species selected from blackgrass (Alopecurus myosuroides), corn (Zea mays), foxtail, giant (giant foxtail, Setaria faberi), goosegrass (Eleusine indica), kochia (Bassia scoparia), oat, wild (wild oat, Avena fatua), pigweed, palmer (palmer amaranth, Amaranthus palmeri), ragweed (common ragweed, Ambrosia artemisiifolia), ryegrass, Italian (Italian ryegrass, Lolium multiflorum), soybean (Glycine max) and wheat (Triticum aestivum) were planted into a blend of loam soil and sand and treated preemergence with a directed soil spray using test chemicals formulated in a non-phytotoxic solvent mixture which included a surfactant.
# (§2) At the same time, plants selected from these crop and weed species and also galium (catchweed bedstraw, Galium aparine) and horseweed (Erigeron canadensis) were planted in pots containing the same blend of loam soil and sand and treated with postemergence applications of test chemicals formulated in the same manner. Plants ranged in height from 2 to 10 cm and were in the one- to two-leaf stage for the postemergence treatment. Treated plants and untreated controls were maintained in a greenhouse for 10 or 12 days, after which time all treated plants were compared to untreated controls and visually evaluated for injury. Plant response ratings, summarized in Table A, are based on a 0 to 100 scale where 0 is no effect and 100 is complete control. A dash (-) response means no test result.
# [2] = tested on: sedge, umbrella (small-flower umbrella sedge, Cyperus difformis); assay: Test D flooded paddy test, umbrella sedge; design: key: 0 = no effect, 100 = complete control; details: 250 g ai/ha, Flood; applied to paddy water at 2-leaf stage; visual rating after 13 days; scale 0 (no effect) to 100 (complete control)
# Method: (§3) Plant species in the flooded paddy test selected from barnyardgrass (Echinochloa crusgalli), ducksalad (Heteranthera limosa), rice (Oryza sativa), and sedge, umbrella (small-flower umbrella sedge, Cyperus difformis) were grown to the 2-leaf stage for testing. At time of treatment, test pots were flooded to 3 cm above the soil surface, treated by application of test compounds directly to the paddy water, and then maintained at that water depth for the duration of the test. Treated plants and controls were maintained in a greenhouse for 13 days, after which time all species were compared to controls and visually evaluated. Plant response ratings, summarized in Table B, are based on a scale of 0 to 100 where 0 is no effect and 100 is complete control. A dash (-) response means no test result.
# [3] = tested on: wheat (Triticum aestivum); assay: Test C preemergence, wheat; details: 0 is no effect, 100 is complete control
# Excerpt: as §1, §2
# [4] = tested on: oat, wild (wild oat, Avena fatua); assay: Test C postemergence, wild oat; details: visual injury, 0 to 100 scale (0 no effect, 100 complete control)
# Excerpt: as §1, §2
# [5] = tested on: pigweed, palmer (palmer amaranth, Amaranthus palmeri); assay: Test C preemergence, palmer amaranth; details: 0 is no effect, 100 is complete control
# Excerpt: as §1, §2
# kochia (Bassia scoparia) [6] = assay: Test C postemergence, kochia; details: visual injury, 0 to 100 scale (0 no effect, 100 complete control)
# Excerpt: as §1, §2
# [7] = tested on: blackgrass (Alopecurus myosuroides); assay: Test C preemergence, blackgrass; details: 0 is no effect, 100 is complete control
# Excerpt: as §1, §2
# [8] = tested on: foxtail, giant (giant foxtail, Setaria faberi); assay: Test C preemergence, giant foxtail; details: 0 is no effect, 100 is complete control
# Excerpt: as §1, §2
# [9] = tested on: goosegrass (Eleusine indica); assay: Test C preemergence, goosegrass; details: 0 is no effect, 100 is complete control
# Excerpt: as §1, §2
# [10] = tested on: ryegrass, Italian (Italian ryegrass, Lolium multiflorum); assay: Test C postemergence, Italian ryegrass; details: visual injury, 0 to 100 scale (0 no effect, 100 complete control)
# Excerpt: as §1, §2
# [11] = tested on: oat, wild (wild oat, Avena fatua); assay: Test C preemergence, wild oat; details: 0 is no effect, 100 is complete control
# Excerpt: as §1, §2
# soybean (Glycine max) [12] = assay: Test C preemergence, soybean; details: 0 is no effect, 100 is complete control
# Excerpt: as §1, §2
# [13] = tested on: foxtail, giant (giant foxtail, Setaria faberi); assay: Test C postemergence, giant foxtail; details: visual injury, 0 to 100 scale (0 no effect, 100 complete control)
# Excerpt: as §1, §2
# kochia (Bassia scoparia) [14] = assay: Test C preemergence, kochia; details: 0 is no effect, 100 is complete control
# Excerpt: as §1, §2
# corn (Zea mays) [15] = assay: Test C postemergence, corn; details: visual injury, 0 to 100 scale (0 no effect, 100 complete control)
# Excerpt: as §1, §2
# [16] = tested on: horseweed (Erigeron canadensis); assay: Test C postemergence, horseweed; details: visual injury, 0 to 100 scale (0 no effect, 100 complete control)
# Excerpt: as §1, §2
# [17] = tested on: goosegrass (Eleusine indica); assay: Test C postemergence, goosegrass; details: visual injury, 0 to 100 scale (0 no effect, 100 complete control)
# Excerpt: as §1, §2
# soybean (Glycine max) [18] = assay: Test C postemergence, soybean; details: visual injury, 0 to 100 scale (0 no effect, 100 complete control)
# Excerpt: as §1, §2
# [19] = tested on: barnyardgrass (Echinochloa crusgalli); assay: Test D flooded paddy test, barnyardgrass; design: key: 0 = no effect, 100 = complete control; details: 250 g ai/ha, Flood; applied to paddy water at 2-leaf stage; visual rating after 13 days; scale 0 (no effect) to 100 (complete control)
# Method: as §3
# [20] = tested on: galium (catchweed bedstraw, Galium aparine); assay: Test C postemergence, galium; details: visual injury, 0 to 100 scale (0 no effect, 100 complete control)
# Excerpt: as §1, §2
# [21] = tested on: ryegrass, Italian (Italian ryegrass, Lolium multiflorum); assay: Test C preemergence, Italian ryegrass; details: 0 is no effect, 100 is complete control
# Excerpt: as §1, §2
# [22] = tested on: pigweed, palmer (palmer amaranth, Amaranthus palmeri); assay: Test C postemergence, palmer amaranth; details: visual injury, 0 to 100 scale (0 no effect, 100 complete control)
# Excerpt: as §1, §2
# [23] = tested on: blackgrass (Alopecurus myosuroides); assay: Test C postemergence, blackgrass; details: visual injury, 0 to 100 scale (0 no effect, 100 complete control)
# Excerpt: as §1, §2
# [24] = tested on: ragweed (common ragweed, Ambrosia artemisiifolia); assay: Test C preemergence, ragweed; details: 0 is no effect, 100 is complete control
# Excerpt: as §1, §2
# [25] = tested on: ragweed (common ragweed, Ambrosia artemisiifolia); assay: Test C postemergence, ragweed; details: visual injury, 0 to 100 scale (0 no effect, 100 complete control)
# Excerpt: as §1, §2
# rice (Oryza sativa) = assay: Test D flooded paddy test, rice; design: key: 0 = no effect, 100 = complete control; details: 250 g ai/ha, Flood; applied to paddy water at 2-leaf stage; visual rating after 13 days; scale 0 (no effect) to 100 (complete control)
# Method: as §3
# corn (Zea mays) [26] = assay: Test C preemergence, corn; details: 0 is no effect, 100 is complete control
# Excerpt: as §1, §2
# [27] = tested on: ducksalad (Heteranthera limosa); assay: Test D flooded paddy test, ducksalad; design: key: 0 = no effect, 100 = complete control; details: 250 g ai/ha, Flood; applied to paddy water at 2-leaf stage; visual rating after 13 days; scale 0 (no effect) to 100 (complete control)
# Method: as §3
smiles,measurement,setting,value
C=C(C)COC1CCN(c2cc(NS(=O)(=O)C(F)(F)F)c(C)cc2C)C1=O (stereo not shown) [Compound 59],Wheat plant response rating,[1]; 31 g ai/ha Postemergence,50
same,Wheat plant response rating,[1]; 125 g ai/ha Postemergence,80
same,"Plant response rating, Sedge, Umbrella",[2],95
same,"Plant response rating (0 to 100 scale), Wheat",[3]; 31 g ai/ha Preemergence,40
same,"Plant response rating (0 to 100 scale), Wheat",[3]; 125 g ai/ha Preemergence,100
same,"Oat, Wild plant response rating",[4]; 31 g ai/ha Postemergence,30
same,"Oat, Wild plant response rating",[4]; 125 g ai/ha Postemergence,90
same,"Plant response rating (0 to 100 scale), Pigweed, Palmer",[5]; 31 g ai/ha Preemergence,100
same,"Plant response rating (0 to 100 scale), Pigweed, Palmer",[5]; 125 g ai/ha Preemergence,100
same,Kochia plant response rating,kochia (Bassia scoparia) [6]; 31 g ai/ha Postemergence,70
same,Kochia plant response rating,kochia (Bassia scoparia) [6]; 125 g ai/ha Postemergence,80
same,"Plant response rating (0 to 100 scale), Blackgrass",[7]; 31 g ai/ha Preemergence,70
same,"Plant response rating (0 to 100 scale), Blackgrass",[7]; 125 g ai/ha Preemergence,90
same,"Plant response rating (0 to 100 scale), Foxtail, Giant",[8]; 31 g ai/ha Preemergence,100
same,"Plant response rating (0 to 100 scale), Foxtail, Giant",[8]; 125 g ai/ha Preemergence,100
same,"Plant response rating (0 to 100 scale), Goosegrass",[9]; 31 g ai/ha Preemergence,90
same,"Plant response rating (0 to 100 scale), Goosegrass",[9]; 125 g ai/ha Preemergence,100
same,"Ryegrass, Italian plant response rating",[10]; 31 g ai/ha Postemergence,10
same,"Ryegrass, Italian plant response rating",[10]; 125 g ai/ha Postemergence,70
same,"Plant response rating (0 to 100 scale), Oat, Wild",[11]; 31 g ai/ha Preemergence,80
same,"Plant response rating (0 to 100 scale), Oat, Wild",[11]; 125 g ai/ha Preemergence,100
same,"Plant response rating (0 to 100 scale), Soybean",soybean (Glycine max) [12]; 31 g ai/ha Preemergence,60
same,"Plant response rating (0 to 100 scale), Soybean",soybean (Glycine max) [12]; 125 g ai/ha Preemergence,90
same,"Foxtail, Giant plant response rating",[13]; 31 g ai/ha Postemergence,10
same,"Foxtail, Giant plant response rating",[13]; 125 g ai/ha Postemergence,90
same,"Plant response rating (0 to 100 scale), Kochia",kochia (Bassia scoparia) [14]; 31 g ai/ha Preemergence,80
same,"Plant response rating (0 to 100 scale), Kochia",kochia (Bassia scoparia) [14]; 125 g ai/ha Preemergence,100
same,Corn plant response rating,corn (Zea mays) [15]; 31 g ai/ha Postemergence,20
same,Corn plant response rating,corn (Zea mays) [15]; 125 g ai/ha Postemergence,90
same,Horseweed plant response rating,[16]; 31 g ai/ha Postemergence,20
same,Horseweed plant response rating,[16]; 125 g ai/ha Postemergence,80
same,Goosegrass plant response rating,[17]; 31 g ai/ha Postemergence,70
same,Goosegrass plant response rating,[17]; 125 g ai/ha Postemergence,90
same,Soybean plant response rating,soybean (Glycine max) [18]; 31 g ai/ha Postemergence,60
same,Soybean plant response rating,soybean (Glycine max) [18]; 125 g ai/ha Postemergence,80
same,"Plant response rating, Barnyardgrass",[19],60
same,Galium plant response rating,[20]; 31 g ai/ha Postemergence,100
same,Galium plant response rating,[20]; 125 g ai/ha Postemergence,100
same,"Plant response rating (0 to 100 scale), Ryegrass, Italian",[21]; 31 g ai/ha Preemergence,30
same,"Plant response rating (0 to 100 scale), Ryegrass, Italian",[21]; 125 g ai/ha Preemergence,100
same,"Pigweed, Palmer plant response rating",[22]; 31 g ai/ha Postemergence,40
same,"Pigweed, Palmer plant response rating",[22]; 125 g ai/ha Postemergence,80
same,Blackgrass plant response rating,[23]; 31 g ai/ha Postemergence,10
same,Blackgrass plant response rating,[23]; 125 g ai/ha Postemergence,80
same,"Plant response rating (0 to 100 scale), Ragweed",[24]; 31 g ai/ha Preemergence,50
same,"Plant response rating (0 to 100 scale), Ragweed",[24]; 125 g ai/ha Preemergence,70
same,Ragweed plant response rating,[25]; 31 g ai/ha Postemergence,10
same,Ragweed plant response rating,[25]; 125 g ai/ha Postemergence,70
same,"Plant response rating, Rice",rice (Oryza sativa),40
same,"Plant response rating (0 to 100 scale), Corn",corn (Zea mays) [26]; 31 g ai/ha Preemergence,40
same,"Plant response rating (0 to 100 scale), Corn",corn (Zea mays) [26]; 125 g ai/ha Preemergence,100
same,"Plant response rating, Ducksalad",[27],80
